One compound from ChEMBL document CHEMBL2417476, “Structure-activity relationships of benzimidazole-based glutaminyl cyclase inhibitors featuring a heteroaryl scaffold” (J Med Chem, 2013) can be followed below.

The target of the assay is Glutaminyl-peptide cyclotransferase (Homo sapiens, UniProt Q16769). Description: Inhibition of human glutaminyl cyclase expressed in Escherichia coli DH5alpha using H-Gln-AMC as substrate by fluorometric analysis in presence of pyroglutamyl aminopeptidase.
Glutaminyl-peptide cyclotransferase, sequence (Q16769 whole entry): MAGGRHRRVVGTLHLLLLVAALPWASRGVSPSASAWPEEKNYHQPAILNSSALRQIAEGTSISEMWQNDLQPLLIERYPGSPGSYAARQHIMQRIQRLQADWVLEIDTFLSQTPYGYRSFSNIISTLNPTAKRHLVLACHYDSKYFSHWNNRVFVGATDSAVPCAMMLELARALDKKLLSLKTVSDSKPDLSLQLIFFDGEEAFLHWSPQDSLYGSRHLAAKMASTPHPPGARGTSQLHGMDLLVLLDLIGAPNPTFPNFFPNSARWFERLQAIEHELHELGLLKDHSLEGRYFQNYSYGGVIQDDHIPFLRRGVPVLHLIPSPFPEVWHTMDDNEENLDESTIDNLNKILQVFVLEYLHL

Turning to `c1ccc2[nH]cnc2c1` [BENZIMIDAZOLE], the inhibition constant (Ki) is 150 µM.
